Test results as given in EP4417607A1, “HETEROCYCLIC COMPOUND AS SOS1 INHIBITOR AND USES THEREOF” (Nanjing Zaiming Pharmaceutical Co., Ltd., priority 2021, dated 2023).

Tested on: H358-SOS2 KO cells
Test: H358-SOS2 KO cell proliferation inhibition (CellTiter-Glo, 3D methylcellulose)
Type: cell-based
Details: 192 h, 8 days, CTG
Method: The effect of the compounds of the present invention on the proliferation of H358 cells with knockout of SOS2 (H358-SOS2 KO, Kyinno Biotechnology Co., Ltd.) was assessed by CellTiter-Glo luminescent cell viability assay kit method. The H358-SOS2 KO cell strain was cultured in complete medium at 37 °C with 5% CO2. A sterilized 1% methylcellulose 3D medium was prepared in advance. Cells in the logarithmic growth phase were harvested and counted using a […]. The cell viability was determined by the trypan blue exclusion method, and the cell viability was kept 90% or more. The cell concentration was adjusted. The cells were uniformly mixed and left to stand. After no visible gas exists in the cell suspension, 180 µL of the cell suspension was added into a 96-well plate at 180 µL/well, and the total number of cells was 2000. The cells in the 96-well plate were incubated at 37 °C with 5% CO2. A diluted test compound was added to each well using a multi-channel pipette. […] The cell plate was placed at room temperature for 20 min to stabilize the luminescence signal. The luminescence value was read, and the data were collected. The data were analyzed using the GraphPad Prism 7.0 software. Dose-response curves were fit to the data using nonlinear S-curve regression, and the IC50 value was calculated from the curves.

[2H][C@](C)(Nc1nc(C)nc2c(N3CCOCC3)c(=O)n(C3(CF)CC3)cc12)c1cccc(C(F)F)c1F [Example 55, (R)-4-((1-(3-(difluoromethyl)-2-fluorophenyl)ethyl-1-d)amino)-6-(1-(fluoromethyl)cyclopropyl)-2-methyl-8-morpholinylpyrido[4,3-d]pyrimidine-7(6H)-one]
IC50: 79 nM
